How the values were obtained:
[1] = Single dose rhesus macaque PK, subcutaneous aqueous suspension, plasma EFdA by LC-MS/MS
Method: The aqueous suspension formulations were derived from 0.25;% CMC-Na and 0.1;%/0.5% TWEEN-80 with equivalent concentration of 116 mg/mL and 319 mg/mL of EFdA for prodrug 5 and EFdA respectively.

[2] = Single dose rat PK, subcutaneous aqueous suspension, plasma EFdA by LC-MS/MS; conditions: SC; for Cmax compared with EFdA itself / time with plasma levels of EFdA above LLOQ: single dose, 10 mg/kg equivalent of EFdA, 4 mg/mL, 0.5% CMC-Na/0.5% TWEEN-80
Method: Animals (Male SD rats ˜200-250 g and Male rhesus macaques ˜2-3 kg) were obtained from an approved vendor (SLAC Laboratory Animal Co. Ltd., Shanghai, China and/or Topgene Biotechnology, Wuhan city, Hubei Province, China).
Animals were fasted at least 12 hours prior to the administration. All animals had access to Certified Rodent and non-Rodent Diet (Catalog #M01-F, SLAC Laboratory Animal Cl. Ltd., Shanghai, China) ad libitum 4 hours post dosing.
The formulations were prepared on the day of dosing. Animals were dosed within four hours after the formulation is prepared. Two 20 μL aliquots of each formulation were removed from each of the formulation solutions, transferred into 1.5 mL of polypropylene microcentrifuge tubes and run dose validation by LC/UV or LC-MS/MS.
For SC dosing, the dose formulation was administered via subcutaneous injection following facility SOPs.
Approximately 200 μL blood was collected from saphenous vein at each time point for rats and 0.5 mL for rhesus macaques. All blood samples were transferred into microcentrifuge tubes containing 4 μL of K2EDTA (0.5M) as anti-coagulant and placed on wet ice until processed for plasma.
Blood: Blood samples were processed for plasma by centrifugation at approximately 4° C., 3000 g 15 min within half an hour of collection. Plasma samples was stored in polypropylene tubes, quick frozen over dry ice and kept at −70±10° C. until LC/MS/MS analysis.
If the carryover couldn't meet the criteria, then the percent of carryover should be estimated following in-house bioanalytical SOP.
Plasma concentration versus time data was analyzed by non-compartmental approaches using the Phoenix WINNONLIN 6.3 software program. Cmax, Tmax, T1/2, AUC(0-t), AUC(0-inf), MRT(0-t), MRT(0-inf), % F and graphs of plasma concentration versus time profile were reported.
Several prodrugs including EFdA (1) as a control were subjected to a single dose rat PK studies via subcutaneous route of administration. All were injected with equivalent doses of 10 mg/kg and concentration of 4 mg/mL of EFdA as an aqueous suspension formulation derived from 0.5% CMC-Na and 0.5% TWEEN-80.

[3] = Aqueous solubility (pH 7.4); conditions: aqueous medium at pH 7.4, pH 7.4, aqueous buffer
[4] = male, rhesus monkey, plasma, sc, 50 mg/kg

Row | SMILES | AUC(0-inf) [1, 4] | half-life [1, 4] | Cmax compared with EFdA itself [2] | time with plasma levels of EFdA above LLOQ [2] | half life and mean residence life compared with EFdA ([2]; 100 mg/kg equivalent dose, 120 mg/mL (prodrug 3) vs 319 mg/mL (EFdA)) | solubility [3] | time with plasma levels of EFdA above LLOQ ([1]; rhesus macaque, SC, single dose, 50 mg/kg equivalent of EFdA, 116 mg/mL)
1 | C#C[C@]1(CO)O[C@@H](n2cnc3c(N)nc(F)nc32)C[C@@H]1O [Compound 1, (2R,3S,5R)-5-(6-amino-2-fluoro-9H-purin-9-yl)-2-ethynyl-2-(hydroxymethyl) tetrahydrofuran-3-ol] | 135 ± 22.7 µM·h | 69 ± 14 h | – | – | – | – | –
2 | C#C[C@]1(COC(=O)C(C)C)O[C@@H](n2cnc3c(N)nc(F)nc32)C[C@@H]1OC(=O)C(C)C [Compound 2, (2R,3S,5R)-5-(6-amino-2-fluoro-9H-purin-9-yl)-2-ethynyl-2-((isobutyryloxy)methyl) tetrahydrofuran-3-yl isobutyrate] | – | – | much lower than EFdA itself | more than a week | – | – | –
3 | C#C[C@]1(COC(=O)C(CC)CC)O[C@@H](n2cnc3c(N)nc(F)nc32)C[C@@H]1OC(=O)C(CC)CC [Compound 3, (2R,3S,5R)-5-(6-amino-2-fluoro-9H-purin-9-yl)-2-(((2-ethylbutanoyl)oxy)methyl)-2-ethynyltetrahydrofuran-3-yl 2-ethylbutanoate] | – | – | much lower than EFdA itself | more than a week | Enhanced | < 2 µg/mL | –
4 | C#C[C@]1(COC(=O)Cc2ccccc2)O[C@@H](n2cnc3c(N)nc(F)nc32)C[C@@H]1OC(=O)Cc1ccccc1 [Compound 5, (2R,3S,5R)-5-(6-amino-2-fluoro-9H-purin-9-yl)-2-ethynyl-2-((2-phenylacetoxy)methyl) tetrahydrofuran-3-yl 2-phenylacetate] | – | – | much lower than EFdA itself | more than a week | – | < 2 µg/mL | more than a month
5 | C#C[C@]1(COC(=O)CN)O[C@@H](n2cnc3c(N)nc(F)nc32)C[C@@H]1OC(=O)CN [Compound 14] | – | – | – | – | – | > 106000 µg/mL | –
